In test [1] the test system is Chlamydia trachomatis serovar L2. The experiment in a line: Development and morphology of inclusions in infected HeLa cells (microscopy). The class given is cell-based. The method, then:
HeLa cells were infected with Chlamydia trachomatis serovar L2 and treated with IFN-γ (100 ng/ml), penicillin G (100 U/ml) or gentamicin ([…]). At various times after infection (hours post-infection (hpi)), the cells were fixed and stained with an antibody against Chlamydia sp. (green in the original figure) and with Hoechst (blue in the original figure). The infected HeLa cells treated with penicillin G have abnormal bodies that grow and that are phenotypically quite different from those formed during treatment with IFN-γ. The bodies formed with penicillin G are appreciably different from “classic” persistent bodies. To examine the effects of penicillin G on cell infection with Chlamydia, the host cells were cultivated up to 70% confluence without antibiotics, and then were infected with C. trachomatis strain […]. muridarum at 1 IFU. The infections were carried out at 37° C. for 90 minutes with centrifugation, followed by a washing of extracellular bacteria. At 3 hpi, after the washings, the culture medium was replaced with medium containing either 25 μg/ml gentamicin or 1-100 IU/ml penicillin G. At regular intervals after treatment with penicillin G, the cultures were either fixed in 4% neutral buffered PFA for 30 minutes to be prepared for confocal microscopy, or collected to determine the infectivity of the progeny bacteria, according to the previously described method (Verbeke, P. et al. PLoS Pathog 2:e45, 2006). HeLa cells cultured in monolayers on slides were infected with serovar L2 with an IFU of 1, as described above (Verbeke, P. et al. PLoS Pathog 2:e45, 2006). Three hours after the infection, the medium was removed and replaced with culture medium containing 500 IU/ml (final concentration) recombinant human IFN-γ.

Test [2] deals with serovar L2 of the Chlamydia trachomatis LGV biovar, serovar D of the trachoma biovar, Chlamydia muridarum. The experiment in a line: Abnormal inclusions in different host cell types, serovars and Chlamydia species. It is filed as cell-based. The settings on record: THP-1, RL95-2, HeLa, C. muridarum, penicillin G at 3 hpi. The text has this:
In blue in the original figure; Hoechst, in green in the original figure: anti-Chlamydia sp. Image taken at 24 hpi (RL95-2/Chlamydia L2; HeLa/Chlamydia-D; HeLa/C. muridarum) or at 48 hpi (THP-1/Chlamydia-L2; THP-1/Chlamydia-D). Scale: 10 μm.
In order to examine whether the effects of penicillin G on bacterial infectivity depend on the strain or the serovar, ATCC serovar L2 and C. trachomatis serovar D, graciously provided by Dr. de Barbeyrac (University of Bordeaux II, Bordeaux, France) were used. C. muridarum was obtained from Dr. Roger Rank (University of Arkansas, Little Rock, Ark., USA). The bacteria were propagated as a matter of routine in HeLa cells as described above and stored at −80° C. before use (Scidmore, M. A. Curr Protoc Microbiol Chapter 1: Unit 11A 11, 2005). The number of inclusion forming units (IFU) was determined by immunofluorescence, as described above (Verbeke, P. et al. PLoS Pathog 2:e45, 2006).
To examine the effects of penicillin G on cell infection with Chlamydia, the host cells were cultivated up to 70% confluence without antibiotics, and then were infected with C. trachomatis strain L2 or D, or with C. muridarum at 1 IFU. The infections were carried out at 37° C. for 90 minutes with centrifugation, followed by a washing of extracellular bacteria. […]

In test [3] the test system is Chlamydia muridarum. Kind of test: Murine model of genital infection (hydrosalpinx). It is filed as in vivo, C57B1/6 mice. Conditions: 5 mg/ml in drinking water for 20 days from day 10, read 60 days later. The text has this: The mice were infected by vaginal route with 10^7 IFU of Chlamydia muridarum. […] The antibiotic treatment was stopped after 20 days and the mice were kept isolated for an additional 60 days. The mice were then sacrificed, the appearance of the genital tract analyzed and the presence of hydrosalpinx (arrows) sought.
C57B1/6 mice were infected with Chlamydia muridarum, a Chlamydia species that infects mice and guinea pigs and is genetically close to Chlamydia trachomatis. Estrous cycles in the mice were initiated by injection of progesterone, and then the mice were infected vaginally after 3 days (10^7 IFU). Ten days after infection, the mice were divided into three groups, a negative control group not receiving any antibiotic, a positive control group receiving doxycycline (5 mg/ml) and a test group receiving penicillin G (5 mg/ml). The duration of the treatment was 20 days; the antibiotics, doxycycline and penicillin G, were added to the mice's drinking water. After treatment, the mice were kept isolated for 60 days in order for persistent bacteria to reinitiate their cycle and for sequelae to develop. The mice were then sacrificed, the appearance of the genital tract analyzed and the presence of hydrosalpinx sought. Various organs were also taken.
The effects of penicillin G were tested in a murine model of genital infection. […]

Test [4] relates to Chlamydia trachomatis serovar L2. Kind of test: Minimum bactericidal concentration (titration of infectious ability of bacteria from treated infected cells). It is filed as cell-based. The protocol: It was first sought to verify whether other molecules of the β-lactam family could induce in vitro the same abnormal and noninfectious forms of Chlamydia trachomatis as that produced in the presence of penicillin G. Titration experiments were performed on the infectious ability of bacteria from infected cells treated with different β-lactams. Cytotoxicity and minimum bactericidal concentration (MBC) were determined for each of these molecules. It was also verified whether all of these β-lactams have bactericidal action on persistent forms of Chlamydia trachomatis produced in vitro under the effect of IFN-γ.

≈ marks a conversion by molar mass, not a printed value. Entries after “also recorded” stand apart in the source; their conditions may differ. Like-named read-outs stand apart in the source and are kept apart here.

What is called MBC is the lowest tested concentration that kills the bacteria rather than only halting them.

With `CC1(C)S[C@@H]2[C@H](NC(=O)Cc3ccccc3)C(=O)N2[C@H]1C(=O)O` [Penicillin G, benzylpenicillin], the “growth of the bacterial inclusions” value in test [1] (infected HeLa cells, videomicroscopy / culture for 4 days) is reported as “grow as quickly as those of cells treated with gentamicin”. Further, the “time at which infected treated cells were lysed” value in test [1] (penicillin G) is reported as 120 hours post-infection (hpi). The “appearance of abnormally dilated structures depending on time of addition” value in test [1] (penicillin G added at various times after infection) is recorded as “only when penicillin G is added in the first phase of the bacterial cycle (before 24 hpi)”. Also, the “generation of abnormal inclusions in other host cells, serovars, species” value in test [2] was “independent of the type of host cell, serovar, biovar or even species of Chlamydia bacterium used; also recorded: exhibiting abnormal inclusions”. Besides, the “appearance of the genital tract / hydrosalpinx” value in test [3] is “normal appearance”. Moreover, the MBC in test [4] (minimum bactericidal concentration, read-out: MBC) is 0.3 µM (≈ 0.1 µg/mL); in test [4] (second line of the MBC cell, read-out: MBC, bound in parentheses below the value), more than 0.1 µM.

The values above are taken from patent US20130053336A1, “TREATMENT OF CHLAMYDIACEAE INFECTIONS BY MEANS OF BETA-LACTAMS” (priority 2010, published 2013).
